Data set [1] concerns RS112 cells. Description: DEL plating assay for mitigation of radiation damage (treatment after 2000Gy). The class given is cell-based, Saccharomyces cerevisiae. As to the method: The mitigation protocol is based on the same DEL assay principle of recombination of the disrupted HIS3 gene that renders the cells capable of synthesizing its own histidine following radiation exposure. To establish mitigation properties of the compounds in question, the classical DEL protocol is modified as follows: first the RS112 cells are irradiated with 2000Gy and then the treatments are administered at 0 min, 10 min, 20 min, 30 min, and 60 min, incubated for 2 hrs, and plated on +13 and −His agar plates. The efficacy of the compounds is scored the same way as in the classical DEL protocol. Yel1 and Yel2 analogues that are efficacious in the HTS and classical DEL assay are analyzed for mitigation activity using this modified DEL protocol.
Six confirmed hits were also tested for radioprotection with the compounds being presented to irradiated cells at different time points following irradiation exposure. The DEL Plating Assay was used with a radiation sensitive Saccharomyces cerevisiae RS112 strain.
The general DEL Assay is described above. In this example, DEL assay is a genetic construct in the Saccharomyces cerevisiae RS112 strain where a plasmid with an internal fragment of the HIS3 gene has been integrated at the HIS3 locus, yielding an integrative disruption of the HIS3 gene. […] The construct reverts to HIS3+ by recombination between the two his3 deletion alleles which is, in 99% of the cases, associated with the deletion of the entire 6 kilobasepairs of DNA comprising the integrated plasmid. DEL events are inducible with a variety of DNA-assaulting agents: radiation, smoking, UV exposure, 92% of the known carcinogens, etc.
RS112 cells irradiated with 2000Gy show an induction of the deletion frequencies (DEL events) and roughly a 90% killing.

Data set [2] concerns OMM lymphocytes. Briefly: γH2AX assay, cigarette smoke extract induced double strand breaks. The class given is cell-based, mouse. The following applies: 3 puff/mL cigarette smoke extract, 6 and 24 hrs, Ogg−/− Myh−/− mice. The protocol: Whole peripheral blood lymphocytes were taken from WT, and OMM double knockout mice (mice deficient in DNA repair pathways observed in smoking-induced lung cancer) and were administered 3 puff/mL of Cigarette smoke extract (CSE) alone or co-incubation of 3 puff/mL Cigarette smoke extract and 10 uM Yel 002 for 3, 6, and 24 hrs and the amount of double stranded breaks were assessed via γH2AX assay. […] Statistical significance was assessed via a 1 way ANOVA test with Tukey's post-hoc analysis. […] Statistical significance was assessed via a 1 way ANOVA test with Tukey's post-hoc analysis. N=3 in each group.

Data set [3] concerns primary human keratinocytes. Description: Senescence of primary keratinocytes in co-culture. The class given is cell-based.

The structures appear in SMILES notation. Entries after “also recorded” stand apart in the source; their conditions may differ.

As to `COc1ccc2cc(-c3nc4ccc(C)cn4c3NCc3ccco3)c(=O)[nH]c2c1` [Yel002], in data set [1] (compound added 0-60 min after 2000Gy, p<0.05), the “reduction of DEL events (gene reversion frequency)” value is on record as “decreased DEL frequencies; also recorded: significant reduction of genetic instability”. In data set [1] (compound added at time points after 2000Gy, significant only at 60 min), the “mitigation of radiation cytotoxicity (survival)” value is listed as “increased survival fractions; also recorded: mitigation of radiation cytotoxicity has been observed”. The figures for the “double strand breaks / average γH2AX per cell” value in data set [2] and in data set [2] (listed as YEL 002) were “reduces the number of DNA double strand breaks” and “significantly reduces cigarette smoke induced double strand breaks; also recorded: significantly decreases the amount of average γH2AX per cell”, respectively. The “doubling time of the cells” value in data set [3] is “extended the doubling time”. In addition, the progression into senescence result in data set [3] (5 uM) is given as “decreased progression of cells into senescence; also recorded: decreases the progression into senescence”.

The values are drawn from patent publication US9045474B2, “Compounds and compositions for mitigating tissue damage and lethality” (The Regents of the University of California, priority 2010, dated 2015).
